Results on 5 compounds are retold here after paper PMC8068036, “Synthesis of New Biscoumarin Derivatives, In Vitro Cholinesterase Inhibition, Molecular Modelling and Antiproliferative Effect in A549 Human Lung Carcinoma Cells” (International Journal of Molecular Sciences, 2021).

One data set in a line: in vitro. As to conditions: for CNS Predicted Availability: classification from PAMPA-BBB Pe; for Papp: PAMPA; for Papp / Pe ± S.E.M.: pH 7.4; for Pe ± S.E.M.: PAMPA-BBB. How it is done: The parallel artificial membrane permeability assay (PAMPA) is used as a non-cell-based in vitro assay to predict BBB penetration and is carried out in a coated 96-well membrane filter. In our assays, the filter membrane of the donor plate was coated with PBL (Polar Brain Lipid, Avanti, Denver, CO, USA) in dodecane (4 µL of 20 mg mL^−1 PBL in dodecane), and the acceptor well was filled with 300 µL of phosphate buffered saline (PBS) (pH 7.4; VA). The tested compounds were first dissolved in DMSO, and the resulting mixture was diluted with PBS (pH 7.4) to reach the final concentration (40–100 µM) in the donor well. […] Three hundred microliters of the donor solution (VD) were added to the donor wells, and the donor filter plate was carefully placed onto the acceptor plate to ensure that the coated membrane was “in contact” with both the donor solution and the acceptor buffer. The test compound diffused from the donor well through the polar brain lipid membrane (area = 0.28 cm^2) to the acceptor well. The concentration of the tested compound in both the donor and acceptor wells was assessed after 3, 4, 5, and 6 h of incubation, respectively, in quadruplicate using a UV plate reader Synergy HT (Biotek, Winooski, VT, USA) at the maximum absorption wavelength of each compound. Additionally, solutions at the theoretical equilibrium of the given compound (i.e., the theoretical concentration if the donor and acceptor compartment were simply combined) were also prepared.

A further data set concerns the target T1, hBChE (human plasma) (Homo sapiens, UniProt P06276).
T1 construct: Human plasma was used as a source of BChE; from tissue; host or cells: human plasma from heparinized blood
The experiment in a line: biochemical. The data set is classed as biochemical. As to conditions: human plasma BChE, mean of at least three experiments; for IC50: read-out: IC50 ± S.E.M. hBChE. The protocol:
(§1) Human recombinant AChE (EC 3.1.1.7), 5,5′-dithiobis(2-nitrobenzoic acid) (Ellman′s reagent, DTNB), phosphate buffer (PB, 0.1 M, pH 7.4), and acetylthiocholine (ATC) and butyrylthiocholine (BTC), were purchased from Sigma-Aldrich, Prague, Czech Republic. Human plasma was used as a source of BChE and was prepared from heparinized human blood. The blood was centrifuged for 20 min (4 °C, 2300× g) on a Hettich Universal 320R centrifuge. The plasma was separated and stored at […]. Polystyrene Nunc 96-well microplates with a flat bottom shape (ThermoFisher Scientific, Waltham, MA, USA) were used for measuring purposes.
(§2) All of the assays were carried out in a 0.1 M phosphate buffer, pH 7.4. The assay medium (100 µL) consisted of 40 µL of 0.1 M phosphate buffer (pH 7.4), 20 µL of 0.01 M DTNB, 10 µL of the enzyme, and 20 µL of 0.01 M substrate ATC/BTC iodide solution).
(§3) The tested compounds were preincubated for 5 min prior to use. The reaction was initiated immediately upon addition of 20 µL of the substrate. […] Each concentration was assayed in triplicate. Software GraphPad Prism 5 (San Diego, CA, USA) was used in the evaluation of the statistical data.

The target of another data set is T2, human recombinant AChE (Homo sapiens, UniProt P22303).
T2 construct: purchased Sigma-Aldrich, Prague, Czech Republic
Description: biochemical. It is filed as biochemical. As to conditions: mean of at least three experiments; for IC50: read-out: IC50 ± S.E.M. hAChE. The protocol:
as §1, §2, §3

In data set [1] the test system is A549 cells. The experiment in a line: MTT assay, A549. It is filed as cell-based, human. As to conditions: for Metabolic activity of A549 cells (in words): 10 to 100 μM, 24 and 48 h; for IC50: Homo sapiens. How it is done:
(§4) Human lung carcinoma cell line A549 and CCD-18Co colon fibroblasts were purchased from the American Type Culture Collection (ATCC, Rockville, MD, USA). The A549 cells were cultured in a complete RPMI-1640 medium (Sigma-Aldrich, St. Louis, MO, USA), and CCD-18Co cells were cultured in an MEM medium (PAN-Biotech GmbH, Aidenbach, Germany). The media were supplemented with 10% fetal bovine serum (FBS; Biosera, Nuaille, France) and antibiotics (1% Antibiotic-Antimycotic 100× and 50 × 10^−3 g l^−1 gentamicin; Biosera) at 37 °C, 95% humidity, and 5% CO2.
(§5) Prior to the selected treatments, cells were seeded on 12-well μ-Chamber slides (ibidi GmbH, Martinsried, Germany) and 6 and/or 96-well plates (TPP, Trasadingen, Switzerland) and left to settle for 24 h. The biscoumarin derivative solutions (at concentrations ranging from 10–100 µM) were then added to cells for 24 or 48 h, and analysis was subsequently performed.
(§6) MTT assays were performed in order to evaluate changes in the metabolic activity of cells that had occurred as a consequence of treatment with the biscoumarin derivatives. A549 cells (15 × 10^3 cells/cm^2) and CCD-18Co ([…]) were seeded in 96-well microplates. The cells were treated for 24 and 48 h with different concentrations (10, 25, 35, 50, 65, 75, and 100 µM) of the derivatives. After the treatment, the MTT (3-(4,5-dimethylthiazol-2-yl)-2,5-diphenyltertrazolium bromide) solution in PBS (5 mg mL^−1) was added to each well. […]. The absorbance of formazan (λ = 584 nm) was measured using a BMG FLUOstar Optima spectrometer (BMG Labtech GmbH, Offenburg, Germany). The results were evaluated as percentages of the absorbance of the untreated control. Results are presented as the average percentage of cells from three independent experiments. IC50 values for the derivatives were extrapolated from a sigmoidal fit (dose–response curve) to the metabolic activity data using OriginPro 8.5.0 SR1 (OriginLab Corp., Northampton, MA, USA).

For a further data set, the system named is CCD-18Co fibroblasts. The experiment in a line: MTT assay, CCD-18Co. As to conditions: for IC50: Homo sapiens, CCD-18Co. It is filed as cell-based. How it is done:
as §4, §5, §6

The subject of data set [2] is A549 cells. The experiment in a line: Cell cycle analysis (flow cytometry, PI). The data set is classed as cell-based, human. As to conditions: 35 and 65 µM, 24 h. The protocol:
For flow cytometric analysis of the cell cycle distribution, floating and adherent cells were harvested together 24 h after treatment with the derivatives (35 and 65 µM), washed in cold PBS, fixed in cold 70% ethanol, and stored overnight at −20 °C. Prior to analysis, the cells were washed twice in PBS, resuspended in a staining solution (0.1% Triton X-100, 0.137 g L^−1 ribonuclease A and 0.02 g L^−1 propidium iodide—PI), and incubated in dark conditions at RT for 30 min. The DNA content was analyzed using a BD FACSCalibur flow cytometer (Becton Dickinson, San Jose, CA, USA) with a 488 nm argon-ion excitation laser, and fluorescence was detected using a 585/42 nm band-pass filter (FL-2). ModFit 3.0 software (Verity Software House, Topsham, ME, USA) was used to generate DNA content frequency histograms and to quantify the percentage of cells in the individual cell cycle phases. The results are presented as the average ratio of cells in the individual phase to all cells from three independent experiments.

Where [3] appears, read: A549, 24 h, read-out: IC50 A549 24 h.
[4] abbreviates: A549, read-out: IC50 A549 48 h, 48 h.

Each structure is given as a SMILES string. Where two headings read alike, the source gives them in different places.

T2 sequence (P22303 32-614): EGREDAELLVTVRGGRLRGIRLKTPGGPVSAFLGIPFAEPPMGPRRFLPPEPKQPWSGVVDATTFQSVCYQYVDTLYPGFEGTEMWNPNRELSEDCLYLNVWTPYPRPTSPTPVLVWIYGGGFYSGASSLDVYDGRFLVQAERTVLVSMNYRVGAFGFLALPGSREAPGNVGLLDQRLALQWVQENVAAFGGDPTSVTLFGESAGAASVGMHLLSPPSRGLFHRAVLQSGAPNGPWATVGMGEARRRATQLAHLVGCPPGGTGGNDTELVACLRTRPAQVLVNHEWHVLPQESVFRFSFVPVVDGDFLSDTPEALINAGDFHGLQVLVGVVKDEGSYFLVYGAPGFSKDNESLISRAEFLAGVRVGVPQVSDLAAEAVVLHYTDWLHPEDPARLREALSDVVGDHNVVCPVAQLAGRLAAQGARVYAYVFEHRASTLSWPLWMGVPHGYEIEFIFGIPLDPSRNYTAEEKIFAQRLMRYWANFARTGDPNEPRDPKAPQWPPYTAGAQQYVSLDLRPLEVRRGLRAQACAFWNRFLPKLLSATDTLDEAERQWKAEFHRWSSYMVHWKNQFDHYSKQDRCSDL
T1 sequence (P06276 29-602): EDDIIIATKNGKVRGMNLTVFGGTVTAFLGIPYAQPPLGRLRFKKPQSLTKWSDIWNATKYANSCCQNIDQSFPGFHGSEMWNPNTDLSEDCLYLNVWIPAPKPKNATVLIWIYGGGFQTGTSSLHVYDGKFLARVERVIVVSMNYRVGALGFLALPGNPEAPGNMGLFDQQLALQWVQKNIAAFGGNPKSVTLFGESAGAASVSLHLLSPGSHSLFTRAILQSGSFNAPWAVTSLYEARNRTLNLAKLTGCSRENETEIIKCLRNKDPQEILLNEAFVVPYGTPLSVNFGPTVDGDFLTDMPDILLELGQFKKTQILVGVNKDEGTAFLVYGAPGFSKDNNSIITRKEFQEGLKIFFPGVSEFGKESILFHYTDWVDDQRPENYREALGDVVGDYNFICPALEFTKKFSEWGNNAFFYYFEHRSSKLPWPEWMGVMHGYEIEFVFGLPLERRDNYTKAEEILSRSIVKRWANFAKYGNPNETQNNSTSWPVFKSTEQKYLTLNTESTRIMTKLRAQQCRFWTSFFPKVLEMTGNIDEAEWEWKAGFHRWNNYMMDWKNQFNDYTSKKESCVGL

For `CNC(=C[N+](=O)[O-])NCCSCc1ccc(CN(C)C)o1` [Ranitidine, reference compound], the “CNS Predicted Availability” value in the data set “in vitro” is reported as “CNS− (CNS−: low BBB permeation predicted with Pe (×10^−6 cm s^−1) < 2.0)”.

Take `Nc1c2c(nc3ccccc13)CCCC2` [Tacrine, tacrine, reference compound]: the “CNS Predicted Availability” value in the data set “in vitro” was “CNS+ (CNS+: high BBB permeation predicted with Pe (×10^−6 cm s^−1) > 4.0)”.

As for `COC(=O)Cc1cc(=O)oc2cc(OCCCCCCCN3CCN(CCNC(=O)Cc4cc(=O)oc5cc(O)ccc45)CC3)ccc12` [12d], the IC50 at hBChE (human plasma) is 49 µM; at human recombinant AChE, 6.3 ± 0.4 µM; in the data set on A549 cells [1] (setting [3]) it was 94 µM; in the data set with A549 cells [1] (setting [4]), 58 µM; in the data set on CCD-18Co fibroblasts (24 h, read-out: IC50 CCD-18Co 24 h), > 100 µM; with CCD-18Co fibroblasts (read-out: IC50 CCD-18Co 48 h, 48 h) it was > 100 µM. Further, in the data set on CCD-18Co fibroblasts (time not stated, read-out: IC50 CCD-18Co), the half-maximal inhibitory concentration (IC50) is > 100 µM. In addition, the Papp in the data set “in vitro” turned out to be 2.11 ± 1.19 ×10⁻⁶ cm/s. For the same compound, the “Pe ± S.E.M.” value in “in vitro” is 2.0–4.0 10^−6 cm s^−1. Moreover, the “CNS Predicted Availability” value in the data set “in vitro” is given as “CNS+/− (CNS +/−: BBB permeation uncertain with Pe (×10^−6 cm s^−1) from 4.0 to 2)”. Further, in the data set on A549 cells [1], the “Metabolic activity of A549 cells (in words)” value is “significant decrease”. The “Metabolic activity of CCD-18Co cells (in words)” value in the data set with CCD-18Co fibroblasts (24 or 48 h) is listed as “significantly reduced metabolic activity only at a concentration of 100 μM”. Further, the “Cell cycle distribution, G0/G1 phase (in words)” value in the data set with A549 cells [2] is on record as “increase in the percentage of the cell population in the G0/G1 phase”.

Take `COC(=O)Cc1cc(=O)oc2cc(OCCCCCCN3CCN(CCNC(=O)Cc4cc(=O)oc5cc(O)ccc45)CC3)ccc12` [12c, Methyl 2-[7-({7-[4-(2-{[2-(7-hydroxy-2-oxo-2H-4-chromenyl)acetyl]amino}ethyl)piperazino]hexyl}oxy)-2-oxo-2H-4-chromenyl]acetate]: the IC50 at hBChE (human plasma) was > 500 µM; on human recombinant AChE it was 88.4 ± 12.6 µM; with A549 cells [1] (setting [3]), > 100 µM; in the data set with A549 cells [1] (setting [4]) it was > 100 µM. The Papp in “in vitro” was found to be 2.96 ± 0.73 ×10⁻⁶ cm/s. In addition, in “in vitro”, the “Pe ± S.E.M.” value was 2.0–4.0 10^−6 cm s^−1. Also, the “CNS Predicted Availability” value in “in vitro” is given as “CNS+/− (CNS +/−: BBB permeation uncertain with Pe (×10^−6 cm s^−1) from 4.0 to 2)”. For the same compound, the “Metabolic activity of A549 cells (in words)” value in the data set with A549 cells [1] was “did not lose the ability to convert dye”. Moreover, the “Cell cycle distribution, G0/G1 phase (in words)” value in the data set with A549 cells [2] is “increased the accumulation of cell population in the G0/G1 phase”.

On to `COC(=O)Cc1cc(=O)oc2cc(OCCCCN3CCN(CCNC(=O)Cc4cc(=O)oc5cc(O)ccc45)CC3)ccc12` [12b], for which, on hBChE (human plasma), the “IC50 ± S.E.M. hBChE” value is given as “did not show inhibitory activity”. In addition, the IC50 on hBChE (human plasma) was > 500 µM; on human recombinant AChE, > 500 µM; in the data set with A549 cells [1] (setting [3]), > 100 µM; in the data set with A549 cells [1] (setting [4]), > 100 µM. The “IC50 ± S.E.M. hAChE” value on human recombinant AChE is given as “did not show inhibitory activity”. Besides, the “CNS Predicted Availability” value in the data set “in vitro” is listed as “CNS− (CNS−: low BBB permeation predicted with Pe (×10^−6 cm s^−1) < 2.0)”. In addition, the “Metabolic activity of A549 cells (in words)” value with A549 cells [1] was “did not lose the ability to convert dye”.
